EPA's ToxRefDB 2

Assays:
[1] = tested on: rat; settings: Prenatal developmental toxicity study, sprague dawley, Oral, Gavage/Intubation, dose end: 17 GD
[2] = tested on: mouse; settings: Carcinogenicity; b6c3f1; Oral; Feed; dose end: 78 week; group: systemic; systemic / in life observation / body weight / body weight
[3] = tested on: rat; settings: Carcinogenicity; fischer; Oral; Feed; dose end: 78 week; group: systemic; systemic / in life observation / body weight / body weight + systemic / pathology microscopic / bone marrow / atrophy
[4] = tested on: rabbit; settings: Prenatal developmental toxicity study, new zealand white, Oral, Gavage/Intubation, dose end: 19 GD
[5] = tested on: rat; settings: Combined chronic toxicity/carcinogenicity, sprague dawley, Oral, Water, dose end: 24 month, group: systemic
[6] = tested on: rat; settings: Subchronic dermal toxicity, sprague dawley, Topical, dose end: 13 week, group: systemic, systemic / in life observation / clinical signs / desquamation + systemic / in life observation / clinical signs / erythema + systemic / in …
[7] = tested on: rabbit; settings: Prenatal developmental toxicity study, chinchilla, Oral, Gavage/Intubation, dose end: 18 GD
[8] = tested on: rat; settings: Prenatal developmental toxicity study, sprague dawley, Oral, Gavage/Intubation, dose end: 15 GD
[9] = tested on: rat; settings: Subchronic oral toxicity in rodents, other, Water, dose end: 90 day, group: systemic
[10] = group: developmental, developmental / developmental malformation / bone / fused + developmental / developmental malformation / brain / dilated cerebral ventricle
[11] = group: developmental, developmental / developmental malformation / bone / fused + developmental / developmental malformation / brain / dilated cerebral ventricle…
[12] = group: maternal, reproductive / reproductive performance / resorptions / resorptions + reproductive / offspring survival early / dead fetuses / dead fetuses…
[13] = group: developmental, developmental / developmental malformation / general / [other]
[14] = group: maternal, systemic / in life observation / body weight / body weight + systemic / in life observation / body weight / body weight gain + systemic / in…
[15] = systemic / pathology microscopic / stomach / hyperkeratosis + systemic / pathology microscopic / stomach / hyperplasia + systemic / in life …
[16] = group: developmental, developmental / developmental malformation / bone / unossified + systemic / in life observation / body weight / fetal weight
[17] = group: maternal, systemic / in life observation / body weight / body weight gain + systemic / in life observation / food consumption / food consumption
[18] = group: maternal, systemic / in life observation / body weight / body weight gain + systemic / in life observation / food consumption / food consumption + …
[19] = group: developmental, developmental / developmental malformation / bone / incomplete ossification
[20] = systemic / in life observation / body weight / body weight + systemic / in life observation / clinical signs / fur (altered appearance) + …

Compound `CCc1nc(N)nc(N)c1-c1ccc(Cl)cc1` [Pyrimethamine] has an LEL [1, 10] of 1.2 mg/kg/day, an NEL [1, 10] of under 1.2 mg/kg/day and an LOAEL [1, 11] of over 2.7 mg/kg/day. It also gave an NOAEL [1, 11] of at least 2.7 mg/kg/day, an NEL ([1]; group: maternal, reproductive / reproductive performance / resorptions / resorptions) of 1.2 mg/kg/day and an LEL [1, 12] of 2.7 mg/kg/day. It also gave an LOAEL [1, 12] of over 2.7 mg/kg/day, an NOAEL [1, 12] of at least 2.7 mg/kg/day and an LEL [2] of 75 mg/kg/day. It also gave an LOAEL [2] of over 150 mg/kg/day, an NEL [2] of under 75 mg/kg/day and an NOAEL [2] of at least 150 mg/kg/day. It also gave an LEL [3] of 10 mg/kg/day, an LOAEL [3] of over 20 mg/kg/day and an NEL [3] of under 10 mg/kg/day. The NOAEL [3] was at least 20 mg/kg/day.

In the case of `Cn1sc(Cl)cc1=O` [5-Chloro-2-methyl-3(2H)-isothiazolone], the LEL [4, 13] is reported as 8 mg/kg/day, the LOAEL [4, 13] is reported as 8 mg/kg/day and the NEL [4, 13] is reported as 2 mg/kg/day. For the same compound, the NOAEL [4, 13] was 2 mg/kg/day, the LEL [4, 14] was 8 mg/kg/day and the LOAEL [4, 14] was 8 mg/kg/day. The NEL [4, 14] was 2 mg/kg/day, the NOAEL [4, 14] was 2 mg/kg/day and the LOAEL ([5]; systemic / pathology microscopic / stomach / hyperkeratosis + systemic / pathology microscopic / stomach / hyperplasia) was 6.6 mg/kg/day. For the same compound, the NEL [5, 15] was 2 mg/kg/day, the NOAEL [5, 15] was 2 mg/kg/day and the LEL ([5]; systemic / pathology microscopic / stomach / hyperkeratosis + systemic / pathology microscopic / stomach / hyperplasia + systemic / …) was 6.6 mg/kg/day. The LEL [6] was 0.75 mg/kg/day, the LOAEL [6] was 0.75 mg/kg/day and the NEL [6] was under 0.75 mg/kg/day. It also gave an NOAEL [6] of under 0.75 mg/kg/day.

Compound `CCCCCCCCCCCCCC[P+](CCCC)(CCCC)CCCC.[Cl-]` [Tributyltetradecylphosphonium chloride] has an LEL [7, 16] of 11.2 mg/kg/day, an LOAEL [7, 16] of 11.2 mg/kg/day and an NEL [7, 16] of 3.75 mg/kg/day. The NOAEL [7, 16] was 3.75 mg/kg/day, the LEL [7, 17] was 11.2 mg/kg/day and the LOAEL [7, 17] was 11.2 mg/kg/day. The NEL [7, 18] was 3.75 mg/kg/day, the NOAEL [7, 18] was 3.75 mg/kg/day and the LEL [8, 19] was 30 mg/kg/day. For the same compound, the LOAEL [8, 19] was 30 mg/kg/day, the NEL [8, 19] was 10 mg/kg/day and the NOAEL [8, 19] was 10 mg/kg/day. For the same compound, the LOAEL [8, 14] was 120 mg/kg/day, the NEL [8, 14] was 20 mg/kg/day and the NOAEL [8, 14] was 60 mg/kg/day. It also gave an LEL ([8]; group: maternal, systemic / in life observation / food consumption / food consumption + systemic / in life observation / clinical signs / respiration (…) of 60 mg/kg/day, an LOAEL [9, 20] of 27.2 mg/kg/day and an NEL [9, 20] of 2.56 mg/kg/day. For the same compound, the NOAEL [9, 20] was 8.66 mg/kg/day and the LEL ([9]; systemic / organ weight / kidney / relative to body weight) was 8.66 mg/kg/day.
